# Test results reported in article PMC3248787 (Bioorganic & medicinal chemistry letters, 2011).
# Experiments:
# [1] = target: T1, purified HDAC8 (Homo sapiens, UniProt Q9BY41); assay: small-molecule microarray; type: binding; settings: SMM screen
# T1 sequence (Q9BY41 1-377): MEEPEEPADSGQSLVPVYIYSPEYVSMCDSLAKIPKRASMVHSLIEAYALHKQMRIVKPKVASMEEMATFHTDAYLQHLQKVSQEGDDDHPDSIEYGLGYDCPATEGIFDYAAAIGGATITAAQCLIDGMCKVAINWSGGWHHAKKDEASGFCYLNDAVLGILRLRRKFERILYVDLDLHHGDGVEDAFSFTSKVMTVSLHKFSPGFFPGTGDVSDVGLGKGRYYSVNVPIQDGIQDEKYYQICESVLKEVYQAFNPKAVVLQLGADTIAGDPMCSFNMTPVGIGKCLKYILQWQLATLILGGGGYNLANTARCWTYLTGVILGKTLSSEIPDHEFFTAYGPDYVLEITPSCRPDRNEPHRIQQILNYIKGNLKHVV
# [2] = tested on: trypsin; assay: trypsin counter screen
# [3] = tested on: acetylated α-tubulin in HeLa cells; assay: immunofluorescence, acetylated α-tubulin in HeLa cells; type: cell-based; settings: 16 h, normalized to DMSO control
# [4] = tested on: acetylated lysine in HeLa cells; assay: immunofluorescence, acetylated lysine in HeLa cells; type: cell-based; settings: 16 h, normalized to DMSO control
compound,measurement,setting,value
CC(=O)Nc1ccc(C(=O)CSc2nc(C)cc(O)n2)cc1 [Compound 7],binding to purified HDAC8 on small-molecule microarray,[1],binder
same,interference with the proteolytic activity of trypsin,[2],does not interfere with the proteolytic activity of trypsin
Nc1ccccc1NC(=O)c1ccc(CNC(=O)OCc2cccnc2)cc1 [MS-275],acetylated α-tubulin level,[3],little change in tubulin acetylation
same,acetylated lysine level,[4],increased global lysine acetylation
"O=C(CCCCCCC(=O)Nc1ccccc1)NO [SAHA, suberoylanilide hydroxamic acid]",acetylated α-tubulin level,[3],increases both global lysine and α-tubulin acetylation levels
same,acetylated lysine level,[4],increases both global lysine and α-tubulin acetylation levels
